The source of these data is patent US20190119200A1, “TERTIARY AMIDES AND METHOD OF USE” (AbbVie Inc., priority 2016, published 2019).

This test deals with T1, LPAR1 (Homo sapiens, UniProt Q92633).
T1 construct: host or cells: U2OS
Kind of test: LPAR1 Arrestin Assay (arrestin reporter assay). The test is classed as cell-based. Conditions: U2OS cells stably expressing the LPAR1 receptor, 200 nM 18:1 LPA (EC80); for Emax: read-out: Maximum Inhibition. Put shortly:
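U2OS cells stably expressing LPAR1 pretreated 1 h at 37° C with compound, then stimulated 5 h with 200 nM 18:1 LPA (EC80), 0.1% DMSO, 0.02% BSA. β-lactamase reporter read by CCF4-AM FRET (460/530 nm emission) after 2 h dye load; 12-point curves, duplicate, n≥3.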

T1 sequence (Q92633 whole entry): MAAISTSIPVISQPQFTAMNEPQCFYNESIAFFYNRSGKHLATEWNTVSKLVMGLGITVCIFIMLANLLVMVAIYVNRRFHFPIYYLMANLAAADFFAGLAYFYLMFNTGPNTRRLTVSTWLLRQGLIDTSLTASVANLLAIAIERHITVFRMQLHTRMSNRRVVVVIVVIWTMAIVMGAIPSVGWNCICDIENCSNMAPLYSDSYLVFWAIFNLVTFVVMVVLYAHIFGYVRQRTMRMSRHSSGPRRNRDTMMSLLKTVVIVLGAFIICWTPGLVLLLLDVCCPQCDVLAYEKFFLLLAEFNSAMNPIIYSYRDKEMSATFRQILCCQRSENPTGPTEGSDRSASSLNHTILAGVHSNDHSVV

`COc1cc(C(=O)N(CCCCC(=O)O)CCCc2ccccc2)cc(OC)c1OC` [Example 10, 5-[(3-phenylpropyl)(3,4,5-trimethoxybenzoyl)amino]pentanoic Acid]: 674 nM corresponded to half-maximal inhibition (IC50) and the Emax is 114%.

Consider `COc1cc(C(=O)N(CCCc2cccc(F)c2)CCSCC(=O)O)cc(OC)c1C` [Example 117, [(2-{(3,5-dimethoxy-4-methylbenzoyl)[3-(3-fluorophenyl)propyl]amino}ethyl)sulfanyl]acetic Acid], for which the IC50 turned out to be 103 nM and the Emax was determined as 116%.

With `COc1cc(C(=O)N(CCCc2ccccc2F)CCSCC(=O)O)cc(OC)c1C` [Example 116, [(2-{(3,5-dimethoxy-4-methylbenzoyl)[3-(2-fluorophenyl)propyl]amino}ethyl)sulfanyl]acetic Acid], half-maximal inhibition (IC50) was put at 281 nM and the Emax turned out to be 108%.

In the case of `COc1cc(C(=O)N(CCCCC(=O)O)CCCc2ccccc2)cc(OC)c1C(F)(F)F` [Example 37, 5-{[3,5-dimethoxy-4-(trifluoromethyl)benzoyl](3-phenylpropyl)amino}pentanoic Acid], the IC50 was 231 nM and the Emax came to 122%.

As for `COc1cc(OC)cc(C(=O)N(CCCCC(=O)O)CCCc2cccc(Cl)c2)c1` [Example 91, 5-{[3-(3-chlorophenyl)propyl](3,5-dimethoxybenzoyl)amino}pentanoic Acid], the IC50 came to 293 nM and the Emax stood at 120%.

For the molecule `COc1cc(C(=O)N(CCCc2ccccc2)CCOCP(=O)(O)O)cc(OC)c1C` [Example 50, ({2-[(3,5-dimethoxy-4-methylbenzoyl)(3-phenylpropyl)amino]ethoxy}methyl)phosphonic Acid], the midpoint of inhibition, the IC50, lay at 1 nM and the Emax amounted to 103%.

With `COc1cc(C(=O)N(CCCCC(=O)O)CCCc2ccccc2)cc(OC)c1C1CC1` [Example 35, 5-[(4-cyclopropyl-3,5-dimethoxybenzoyl)(3-phenylpropyl)amino]pentanoic Acid], it took 13 nM to reach half-maximal inhibition (IC50) and the Emax worked out at 103%.

Regarding `COc1cc(C(=O)N(CCCc2cccc(Cl)c2)CCOCC(=O)O)cc(OC)c1C` [Example 109, (2-{[3-(3-chlorophenyl)propyl](3,5-dimethoxy-4-methylbenzoyl)amino}ethoxy)acetic Acid], the IC50 is 139 nM and the Emax came to 111%.

On to `COc1cc(C(=O)N(CCCCC(=O)O)CCCc2cccc(F)c2)cc(OC)c1C` [Example 33, 5-{(3,5-dimethoxy-4-methylbenzoyl)[3-(3-fluorophenyl)propyl]amino}pentanoic Acid], for which the IC50 was 71 nM and the Emax turned out to be 110%.

Consider `COc1cc(C(=O)N(CCCc2cccc(Cl)c2)CCSCC(=O)O)cc(OC)c1C` [Example 122, [(2-{[3-(3-chlorophenyl)propyl](3,5-dimethoxy-4-methylbenzoyl)amino}ethyl)sulfanyl]acetic Acid], for which half-maximal inhibition (IC50) was put at 152 nM and the Emax is 127%.

With `COc1cc(C(=O)N(CCCCC(=O)O)CCCc2ccc(Cl)o2)cc(OC)c1C` [Example 185, 5-{[3-(5-chlorofuran-2-yl)propyl](3,5-dimethoxy-4-methylbenzoyl)amino}pentanoic Acid], it took 288 nM to reach half-maximal inhibition (IC50) and the Emax came out at 122%.

Regarding `COc1cc(C(=O)N(CCCc2ccccc2)CCCC(C)(O)C(=O)O)cc(OC)c1C` (stereo not drawn) [Example 155, 5-[(3,5-dimethoxy-4-methylbenzoyl)(3-phenylpropyl)amino]-2-hydroxy-2-methylpentanoic Acid], half-maximal inhibition (IC50) required 401 nM and the Emax was 125%.

`COc1cc(C(=O)N(CCCc2ccccc2)CCSC(C)CC(=O)O)cc(OC)c1C` (stereo not drawn) [Example 62, 3-({2-[(3,5-dimethoxy-4-methylbenzoyl)(3-phenylpropyl)amino]ethyl}sulfanyl)butanoic Acid]: half-maximal inhibition (IC50) was put at 39 nM and the Emax stood at 114%.

In the case of `COc1cc(C(=O)N(CCCc2ccccc2)CCSCCC(=O)O)cc(OC)c1C` [Example 60, 3-({2-[(3,5-dimethoxy-4-methylbenzoyl)(3-phenylpropyl)amino]ethyl}sulfanyl)propanoic Acid], the IC50 came out at 308 nM and the Emax was determined as 110%.

As for `COc1cc(C(=O)N(CCCCC(=O)O)CCCc2ccccc2F)cc(OC)c1C` [Example 32, 5-{(3,5-dimethoxy-4-methylbenzoyl)[3-(2-fluorophenyl)propyl]amino}pentanoic Acid], the IC50 came out at 76 nM and the Emax worked out at 112%.

As for `COc1cc(C(=O)N(CCCCC(=O)NS(C)(=O)=O)CCCc2ccccc2)cc(OC)c1C` [Example 111, N-{5-[(methanesulfonyl)amino]-5-oxopentyl}-3,5-dimethoxy-4-methyl-N-(3-phenylpropyl)benzamide], the IC50 amounted to 93 nM and the Emax worked out at 116%.

In the case of `COc1cc(C(=O)N(CCCc2ccccc2)CCCC(C)(C)C(=O)O)cc(OC)c1C` [Example 57, 5-[(3,5-dimethoxy-4-methylbenzoyl)(3-phenylpropyl)amino]-2,2-dimethylpentanoic Acid], the IC50 worked out at 4 nM and the Emax came out at 103%.

Take `COc1cc(C(=O)N(CCCCC(=O)O)CCCc2cccc(Cl)c2)cc(OC)c1C` [Example 38, 5-{[3-(3-chlorophenyl)propyl](3,5-dimethoxy-4-methylbenzoyl)amino}pentanoic Acid]: 26 nM corresponded to half-maximal inhibition (IC50) and the Emax stood at 114%.

For the molecule `COc1ccc(C2(C(=O)N(CCCc3ccccc3)CCSCC(=O)O)CC2)cc1` [Example 115, [(2-{[1-(4-methoxyphenyl)cyclopropane-1-carbonyl](3-phenylpropyl)amino}ethyl)sulfanyl]acetic Acid], half-maximal inhibition (IC50) was put at 1080 nM and the Emax was determined as 104%.

For the molecule `COc1cc(C(=O)N(CCCc2cccc(F)c2)CCOCC(=O)O)cc(OC)c1C` [Example 129, (2-{(3,5-dimethoxy-4-methylbenzoyl)[3-(3-fluorophenyl)propyl]amino}ethoxy)acetic Acid], the half-inhibitory concentration (IC50) turned out to be 218 nM and the Emax was found to be 124%.

Consider `COc1cc(C(=O)N(CCCCC(=O)O)CCCc2ccco2)cc(OC)c1C` [Example 173, 5-{(3,5-dimethoxy-4-methylbenzoyl)[3-(furan-2-yl)propyl]amino}pentanoic Acid], for which the IC50 is 295 nM and the Emax came out at 122%.

As for `COc1cc(C(=O)N(CCCCC(=O)O)CCCc2ccc(F)cc2)cc(OC)c1C` [Example 34, 5-{(3,5-dimethoxy-4-methylbenzoyl)[3-(4-fluorophenyl)propyl]amino}pentanoic Acid], it took 391 nM to reach half-maximal inhibition (IC50) and the Emax is 115%.

On to `COc1cc(C(=O)N(CCCc2ccccc2)CCOCC(=O)O)cc(OC)c1C` [Example 6, {2-[(3,5-dimethoxy-4-methylbenzoyl)(3-phenylpropyl)amino]ethoxy}acetic Acid], for which 126 nM corresponded to half-maximal inhibition (IC50) and the Emax was determined as 130%.

As for `COc1cc(C(=O)N(CCCc2ccccc2F)CCOCC(=O)O)cc(OC)c1C` [Example 110, (2-{(3,5-dimethoxy-4-methylbenzoyl)[3-(2-fluorophenyl)propyl]amino}ethoxy)acetic Acid], the IC50 came to 706 nM and the Emax came to 110%.
